Data on 13 molecules can be found in patent publication US8557816B2, “Aurora kinase modulators and method of use” (Amgen Inc., priority 2007, dated 2013).

For one assay, the target named is T1, AuroraB (Homo sapiens, UniProt Q96GD4).
T1 construct: 20 μL of AuroraB FL H is for a final volume of 41 μL; His
Description: AuroraB Homogeneous Time Resolved Fluorescent (HTRF) kinase assay. Format: biochemical. Particulars: average; read-out: AurB_IC50_IP (uM Avg). Put shortly:
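Read-out is time-resolved FRET between europium anti-phospho-H3 antibody and streptavidin-APC, added in EDTA buffer to stop the reaction and equilibrated about 60 min (ex 320, em 615 and 655 nm). Preceding reaction: ~90 min, full-length enzyme, ATP, 0.1 μM biotin-Histone H3 substrate, Mg/Mn HEPES buffer pH 7.5.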

For a further assay, the target named is T2, AuroraA-TPX2 (Homo sapiens, UniProt O14965).
T2 construct: 20 μL of AuroraA-TPX2 KD GST for a final volume of about 41 μL; GST
T2 sequence (O14965 133-383 limits assumed): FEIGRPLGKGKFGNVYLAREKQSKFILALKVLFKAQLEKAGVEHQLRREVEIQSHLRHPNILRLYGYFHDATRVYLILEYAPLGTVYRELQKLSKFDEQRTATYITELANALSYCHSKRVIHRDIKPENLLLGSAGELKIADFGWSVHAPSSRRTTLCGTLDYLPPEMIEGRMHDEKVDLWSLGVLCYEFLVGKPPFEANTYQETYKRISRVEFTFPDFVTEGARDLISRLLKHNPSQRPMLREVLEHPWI
T2 sequence (Q9ULW0 1-43 partner limits assumed): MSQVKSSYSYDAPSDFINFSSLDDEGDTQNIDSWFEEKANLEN
Put plainly: AuroraA-TPX2 Homogeneous Time Resolved Fluorescent (HTRF) kinase assay. Format: biochemical. The settings on record: average; read-out: AurA_IC50_IP (uM Avg). The procedure, abridged:
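HTRF read-out (Eu 615 nm to APC 655 nm) of phosphorylated biotin-PLK, detected with 0.02 nM europium anti-phosphoPLK antibody and 0.0005 mg/mL SA-APC after overnight equilibration.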
On the technique in general: TR-FRET usually uses a lanthanide donor and a delayed reading to cut background.

T1 sequence (Q96GD4 whole entry): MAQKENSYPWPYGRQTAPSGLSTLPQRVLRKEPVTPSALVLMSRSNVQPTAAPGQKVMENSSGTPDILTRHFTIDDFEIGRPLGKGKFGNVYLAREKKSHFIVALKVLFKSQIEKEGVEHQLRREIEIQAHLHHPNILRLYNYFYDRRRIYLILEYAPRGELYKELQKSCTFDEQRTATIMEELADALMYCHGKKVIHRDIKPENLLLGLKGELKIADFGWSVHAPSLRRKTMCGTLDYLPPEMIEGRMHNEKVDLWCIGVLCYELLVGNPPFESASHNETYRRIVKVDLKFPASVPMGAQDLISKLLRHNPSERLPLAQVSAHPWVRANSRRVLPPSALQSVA

In the case of `Clc1ccc(-c2nnc(Nc3ccc(Sc4ccnc5cc(Br)cnc45)cc3)c3ccccc23)cc1` [compound 324, N-(4-((7-bromo-1,5-naphthyridin-4-yl)thio)phenyl)-4-(4-chlorophenyl)-1-phthalazinamine], the values for the IC50 on AuroraB and at AuroraA-TPX2 were 0.063 µM and 0.035 µM, respectively.
In the case of `COc1cnc2c(Sc3ccc(Nc4nnc(-c5ccc(Cl)cn5)c5ccccc45)cc3)ccnc2c1` [compound 325, 4-(5-chloro-2-pyridinyl)-N-(4-((7-(methyloxy)-1,5-naphthyridin-4-yl)thio)phenyl)-1-phthalazinamine], the values for the IC50 at AuroraB and at AuroraA-TPX2 were 0.019 µM and 0.013 µM, respectively.
For `COc1cc2c(Oc3ccc(Nc4nnc(-c5ccccc5)c5ccccc45)cc3)ccnc2cc1OCc1ccccc1` [compound 326, N-(4-((6-(methyloxy)-7-((phenylmethyl)oxy)-4-quinolinyl)oxy)phenyl)-4-phenyl-1-phthalazinamine] the same measures were 0.039 µM and 0.026 µM.
Turning to `COc1cccc(-c2nnc(Nc3ccc(Sc4ccnc5ccccc45)cc3)c3ccccc23)n1` [compound 327, 4-(6-(methyloxy)-2-pyridinyl)-N-(4-(4-quinolinylthio)phenyl)-1-phthalazinamine], the IC50 at AuroraB came out at 0.014 µM; on AuroraA-TPX2, 0.118 µM.
On the same counts, the results for `COc1ccc2c(Cc3ccc(Nc4nnc(-c5ccc(Cl)cc5)c5ccccc45)cc3)ccnc2c1` [compound 328, 4-(4-chlorophenyl)-N-(4-((7-(methyloxy)-4-quinolinyl)methyl)phenyl)-1-phthalazinamine] are 0.032 µM and 0.047 µM.
On to `c1ccc(-c2nnc(Nc3ccc(Sc4ccnc5[nH]ccc45)cc3)c3ccccc23)cc1` [compound 329, 4-phenyl-N-(4-(1H-pyrrolo[2,3-b]pyridin-4-ylthio)phenyl)-1-phthalazinamine], for which the IC50 at AuroraB is 0.009 µM; on AuroraA-TPX2, 0.114 µM.
As to `Clc1ccc(-c2nnc(Nc3ccc(Sc4ccnc5[nH]ccc45)cc3)c3ccccc23)cc1` [compound 330, 4-(4-chlorophenyl)-N-(4-(1H-pyrrolo[2,3-b]pyridin-4-ylthio)phenyl)-1-phthalazinamine], the IC50 on AuroraB is 0.009 µM; at AuroraA-TPX2 it was 0.038 µM.
Regarding `COc1ccc2c(Sc3ccc(Nc4nnc(-c5ccccc5)c5ccccc45)cc3)ccnc2c1` [compound 331, N-(4-((7-(methyloxy)-4-quinolinyl)thio)phenyl)-4-phenyl-1-phthalazinamine], the IC50 was determined as 0.155 µM on AuroraB and 0.192 µM at AuroraA-TPX2.
For the molecule `Clc1ccc(-c2nnc(Nc3ccc(Sc4ccnc5ccsc45)cc3)c3ccccc23)cc1` [compound 332, 4-(4-chlorophenyl)-N-(4-(thieno[3,2-b]pyridin-7-ylthio)phenyl)-1-phthalazinamine], the IC50 on AuroraB was found to be 0.003 µM; on AuroraA-TPX2 it was 0.016 µM.
As to `COc1ccc2c(Sc3ccc(Nc4nnc(-c5ccc(Cl)cc5)c5ccccc45)cc3)ccnc2c1` [compound 334, 4-(4-chlorophenyl)-N-(4-(7-methoxyquinolin-4-ylthio)phenyl)phthalazin-1-amine], the values for the IC50 at AuroraB and at AuroraA-TPX2 were 0.067 µM and 0.049 µM, respectively.
In the case of `CCc1cc(-c2cccc(Cl)c2)nnc1Nc1ccc(Oc2ccnc3cc(OC)cnc23)cc1` [compound 335, 6-(3-chlorophenyl)-4-ethyl-N-(4-(7-methoxy-1,5-naphthyridin-4-yloxy)phenyl)pyridazin-3-amine], the IC50 at AuroraB was found to be 0.021 µM; at AuroraA-TPX2 it was 0.062 µM.
For `Cc1csc(-c2nnc(Nc3ccc(Sc4ccnc5cccnc45)cc3)c3ccccc23)c1` [compound 336, N-(4-(1,5-naphthyridin-4-ylthio)phenyl)-4-(4-methylthiophen-2-yl)phthalazin-1-amine] the same measures were 0.01 µM and 0.019 µM.
In the case of `COc1cnc2c(Oc3ccc(Nc4nnc(N5CCSCC5)c5ccccc45)cc3)ccnc2c1` [compound 337, N-(4-(7-methoxy-1,5-naphthyridin-4-yloxy)phenyl)-4-thiomorpholinophthalazin-1-amine], the results for the IC50 on AuroraB and on AuroraA-TPX2 were 0.015 µM and 0.076 µM, respectively.
